Measured values: patent US20260226026A1, “COMPOUND AS CTPS1 INHIBITOR” (Hangzhou Innogate Pharma Co., Ltd., priority 2023, published 2026)

How the values were obtained:
hCTPS1 enzyme = molecular target: T1, hCTPS1 enzyme (Homo sapiens, UniProt P17812); assay: Inhibition of CTPS1 enzyme activity (ADP-Glo method); format: biochemical; details: hCTPS1, 90 min reaction at 25° C.
T1 sequence (P17812 1-591): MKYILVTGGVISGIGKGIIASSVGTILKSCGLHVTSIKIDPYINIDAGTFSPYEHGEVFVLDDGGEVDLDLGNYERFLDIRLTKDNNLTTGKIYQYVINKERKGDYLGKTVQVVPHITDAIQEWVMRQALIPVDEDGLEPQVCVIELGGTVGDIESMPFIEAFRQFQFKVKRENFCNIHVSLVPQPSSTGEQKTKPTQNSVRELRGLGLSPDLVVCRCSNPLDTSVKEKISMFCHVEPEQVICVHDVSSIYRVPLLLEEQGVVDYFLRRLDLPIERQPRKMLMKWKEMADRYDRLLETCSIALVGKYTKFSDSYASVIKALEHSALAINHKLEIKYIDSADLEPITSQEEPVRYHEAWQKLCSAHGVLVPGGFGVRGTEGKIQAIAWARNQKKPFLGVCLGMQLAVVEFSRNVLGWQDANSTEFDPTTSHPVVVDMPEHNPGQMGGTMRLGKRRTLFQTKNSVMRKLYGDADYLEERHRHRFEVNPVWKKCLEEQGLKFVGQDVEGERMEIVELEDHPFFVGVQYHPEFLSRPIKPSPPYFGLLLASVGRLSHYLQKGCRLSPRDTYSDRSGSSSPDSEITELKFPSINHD
Method: The enzyme activity of CTPS1 was tested using the ADP-Glo method. Compounds were serially diluted in DMSO with 3-fold gradients across ten concentrations. Transfer 0.1 μL of diluted compound to a 384-well plate, centrifuge at 1000 rpm for 1 min. Add 2.5 μL of hCTPS1 enzyme working solution, centrifuge at 1000 rpm for 1 min, and incubate at 25° C. for 10 min. Add 2.5 μL of ATP & UTP solution and incubate at 25° C. for 10 min. Add 5 μL of substrate solution to initiate the reaction and incubate at 25° C. for 90 min. Add 10 μL of ADP-Glo solution to the 384-well plate, centrifuge at 1000 rpm for 1 min, incubate at 25° C. for 40 min, add 20 μL of detection solution, centrifuge at 1000 rpm for 1 min, and incubate at 25° C. for 60 min. […] were read using a BMG microplate reader. Inhibition rate (%) was calculated as follows: Inhibition rate (%)=[(DMSO control well signal−Compound well signal)/(DMSO control well signal−Blank control well signal)]×100%. IC50 values for compounds were analyzed by nonlinear regression in XLFit 5.5.0 software using the formula: Y=Bottom+(Top−Bottom)/(1+10^((LogIC50−X)*HillSlope)) where Y is the inhibition rate and X is the log value of compound concentration.

Jurkat cells = assay: Inhibition of Jurkat cell proliferation (CellTiter-Glo, 72 hours); format: cell-based; details: Homo sapiens; Jurkat cells, 72 hours, CellTiter-Glo; read-out: Jurkat (IC50)
Method: Select Jurkat cells in good growth condition and digest them with trypsin. Add fresh culture medium, mix thoroughly, and centrifuge at 1000 rpm for 5 minutes. Seed the cells into a 96-well plate at a density of 10,000 cells per well, and incubate overnight in a 37° C. incubator. On the following day, take out of the culture plate and treat the cells with compounds prepared in a five-fold serial dilution. Return the plate to the 37° C. incubator and continue incubation for 72 hours.
After incubation, bring out the cell culture plate and equilibrate it to room temperature. Add 100 μL of CellTiter-Glo reagent to each well, shake in the dark for 2 minutes, and incubate for 10 minutes. Measure the luminescence using an Enspire plate reader. Calculate the inhibition rate using the following formula: Inhibition rate (%)=(1−(RLU_compound−RLU_blank)/(RLU_DMSO−RLU_blank))×100%. Plot the dose-response curve and calculate the IC50 value using XLFit.

in vivo = assay: in vivo; parameters: species or system SD rats; details: male, SD, rat, po
Method: Instrumentation: SCIEX Triple Quad 6500+ triple quadrupole liquid chromatography-mass spectrometry system (LC-MS/MS), operating software is Analyst 1.7.2 (Applied Biosystems, USA); ExionLC liquid chromatography system; Microsoft Excel was used for data calculation and processing. Pharmacokinetic parameters were calculated using the statistical moment method with WinNonlin 8.2 software. Key kinetic parameters included Tmax, T1/2, Cmax, AUC0-24 h etc. Column: Synergi 4 μm Fusion-RP 80 Å Luna C18 2 mm*50 mm, 4 μm; Column temperature: 40° C.; Mobile phase A: Water (0.1% formic acid); Mobile phase B: Acetonitrile; Flow rate: 0.8 mL/min; Gradient elution is adopted, the elution gradient is 0.10 min: 15% B; 1.60 min: 95% B; 1.90 min: 95% B; 1.91 min: 15% B; 2.20 min: 15% B. Injection volume: 1 μL.
Animals: 3 male SD rats with a weight range of 200-220 g were purchased and kept in the laboratory of the Experimental Animal Center for 3 days and then used. They were fasted for 12 hours predose and 4 hours after dosing. Drinking water was free during the test. After the rats were gavage, blood samples were taken according to the established time point.
Solvent: 0.4% ethanol+0.4% Tween80+99.2% (0.5% methylcellulose M450). Preparation of the solution for intragastric administration: Compounds were accurately weighed and added to the solvent. The mixture was then subjected to vortex mixing and sonication until a homogeneous suspension was achieved, thereby preparing medicinal solutions of the desired concentrations.
Compound samples: Typically, multiple structurally analogous compounds (with molecular weights differing by more than 2 units) were accurately weighed and administered together (cassette PK). This approach allows for the simultaneous screening of multiple compounds and comparison of their oral absorption rates. Single compound administration was also employed to study the pharmacokinetics of drug samples in rats.
After intragastric administration, blood was collected from the jugular vein at 0.25, 0.5, 1, 2, 4, 8, 10 and 24 hours. Transfer 20 μL of plasma sample (for blank samples and internal standard blank samples, add 20 μL of blank plasma) to a 1.5 mL centrifuge tube, add 200 μL of internal standard solution (50% methanol in acetonitrile (concentration 100 ng/mL)) (for Double blank samples, add 200 μL of 50% methanol in acetonitrile solution). Vortex the samples for 5 minutes, then centrifuge at 14000 rpm and 4° C. for 5 minutes. Transfer 80 μL and add to 80 μL of water, mix uniformly, and submit for LC-MS/MS analysis.
The compounds were accurately weighed to prepare different concentrations, and quantitative analysis on mass spectrometry was performed to establish a standard curve, and then the concentration of the above-mentioned compound in the plasma was tested to obtain its concentration at different time points. All measurement data were collected and processed by relevant software, and the statistical moment method was used to calculate the pharmacokinetic parameters (mainly including kinetic parameters Tmax, T1/2, Cmax, AUC0-24 h etc).

Row | IC50 (hCTPS1 enzyme) [nM] | IC50 (Jurkat cells) [nM] | AUC(0-t) (in vivo; 3 mg/kg) [ng·h/mL] | Cmax (in vivo; 3 mg/kg) [ng/mL] | Tmax (in vivo; 3 mg/kg) [h] | half-life (in vivo; 3 mg/kg) [h] | Structure (SMILES) | AUC(0-t) (in vivo; 2 mg/kg) [ng·h/mL] | Cmax (in vivo; 2 mg/kg) [ng/mL] | Tmax (in vivo; 2 mg/kg) [h] | half-life (in vivo; 2 mg/kg) [h]
1 | < 25 | < 15 | – | – | – | – | CCOc1cncc(-c2ccc(NC(=O)C3(c4ccnc(NS(=O)(=O)C5CC5)n4)CCC(=CCCO)CC3)nc2)n1 (stereo not drawn) [Compound 44] | 33 | 10.5 | 1.17 | 1.77
2 | < 50 | < 15 | 46.7 | 33.1 | 0.25 | 1.8 | CCOc1cncc(-c2ccc(NC(=O)C3(c4ccnc(NS(=O)(=O)C5CC5)n4)CCC(=CCN4CC(OC)C4)CC3)nc2)n1 (stereo not drawn) [Compound 28] | – | – | – | –
3 | < 25 | < 15 | 25100 | 4540 | 2.17 | 2.53 | CCOc1cncc(-c2ccc(NC(=O)C3(c4ccnc(NS(=O)(=O)C5CC5)n4)CCC(=CCC(C)(C)O)CC3)nc2)n1 (stereo not drawn) [Compound 58] | – | – | – | –
4 | < 25 | < 15 | 37600 | 4820 | 2.33 | 3.03 | CCOc1cncc(-c2ccc(NC(=O)C3(c4ccnc(NS(=O)(=O)C5CC5)n4)CCC(=CCC4COC4)CC3)nc2)n1 (stereo not drawn) [Compound 63] | – | – | – | –

Row | Structure (SMILES) | IC50 (hCTPS1 enzyme) [nM] | IC50 (Jurkat cells) [nM] | AUC(0-t) (in vivo; 3 mg/kg) [ng·h/mL] | Cmax (in vivo; 3 mg/kg) [ng/mL] | Tmax (in vivo; 3 mg/kg) [h] | half-life (in vivo; 3 mg/kg) [h] | AUC(0-t) (in vivo; 2 mg/kg) [ng·h/mL] | Cmax (in vivo; 2 mg/kg) [ng/mL] | Tmax (in vivo; 2 mg/kg) [h] | half-life (in vivo; 2 mg/kg) [h]
5 | CCOc1cncc(-c2ccc(NC(=O)C3(c4ccnc(NS(=O)(=O)C5CC5)n4)CCC(=C(F)CO)CC3)nc2)n1 (stereo not drawn) [Compound 39] | < 25 | < 15 | – | – | – | – | 1470 | 837 | 1.33 | 2.48
6 | CCOc1cncc(-c2ccc(NC(=O)C3(c4ccnc(NS(=O)(=O)C5CC5)n4)CCC(=CC4COC4)CC3)nc2)n1 (stereo not drawn) [Compound 36] | < 25 | < 5 | 6250 | 3770 | 0.25 | 2.8 | – | – | – | –
7 | CCOc1cncc(-c2ccc(NC(=O)C3(c4ccnc(NS(=O)(=O)C5CC5)n4)CCC(=C(C)CO)CC3)nc2)n1 (stereo not drawn) [Compound 47] | < 25 | < 15 | – | – | – | – | 1410 | 1820 | 0.25 | 2.01
